Assay results reported in patent US6294519A, “Method for treating ischemia” (University of Kentucky Research Foundation, priority 2000, dated 2001).

System: focal middle cerebral arterial occlusion (MCAO) ischemia
Conditions: for neurological deficits (behavior ranking 0 to 3): 4 mg/kg i.p. at 6.5, 4.5, 2.5 and 0.5 h prior to ischemia, 24 h reperfusion, mean±SEM, n=8, 0=normal, 3=severe; for neurological deficits (behavior ranking 0 to 3) / infarct volume reduction compared to control animals: 1 h MCAO; for infarct volume reduction compared to control animals / differences in MABP, pO2, pCO2, pH or rectal temperature versus control animals: 4 mg/kg i.p. x4 prior to ischemia; for infarct volume reduction compared to control animals / statistical significance of the infarct volume difference versus control: after 24 h of reperfusion; for statistical significance of the infarct volume difference versus control: significance at p<0.05; for differences in MABP, pO2, pCO2, pH or rectal temperature versus control animals: post ischemia

SMILES: CC(C)C[C@@H](NC(=O)[C@H](Cc1ccccc1)NC(=O)CNC(=O)[C@@H](C)NC(=O)[C@@H](N)Cc1ccc(O)cc1)C(=O)O [DADLE, Tyr-D-Ala-Gly-Phe-D-Leu-enkephalin]
- neurological deficits (behavior ranking 0 to 3): 1.73±0.20
- infarct volume reduction compared to control animals: 12%
- statistical significance of the infarct volume difference versus control: not statistically significant
- differences in MABP, pO2, pCO2, pH or rectal temperature versus control animals: no significant differences

SMILES: CC(C)[C@H](NC(=O)[C@H](CC(=O)O)NC(=O)[C@H](Cc1ccccc1)NC(=O)[C@@H](C)NC(=O)[C@@H](N)Cc1ccc(O)cc1)C(=O)N[C@H](C(=O)NCC(N)=O)C(C)C [deltorphin, Tyr-Ala-Phe-Asp-Val-Val-Gly-NH2]
- neurological deficits (behavior ranking 0 to 3): 0.44±0.11
- infarct volume reduction compared to control animals: 42%
- statistical significance of the infarct volume difference versus control: significantly reduced
- differences in MABP, pO2, pCO2, pH or rectal temperature versus control animals: no significant differences
